Measured values taken from patent publication US5262411A, “Isocephem derivatives, and antimicrobial composition containing the derivatives” (Otsuka Pharmaceutical Co., Ltd., priority 1989, dated 1993).
Values after ≈ are worked out from the molar mass of the structure shown. Read-outs that look alike come from different tables or passages of the source.

Columns and labels:
Format in all cases: cell-based
[1] = test system: K. pneumoniae NCTC-9632; test: MIC against K. pneumoniae NCTC-9632 by the plate diluted method; conditions: Klebsiella pneumoniae, NCTC9632
Experimental: (§1) In order to investigate the in vitro activity of the test compounds against various bacteria, the minimal inhibitory concentration (MIC) values were determined by the plate diluted method (See CHEMOTHERAPY, 22, 1126-1128, 1974.)
(§2) Each strain was adjusted to 1×10^6 cells/ml (O.D. 600 mμ, 0.07 to 0.16).

[2] = test system: S. marcescens IFO 12648; test: MIC against S. marcescens IFO 12648 by the plate diluted method; conditions: Serratia marcescens, IFO12648
Experimental: as §1, §2

[3] = test system: E. coli NIHJ JC-2; test: MIC against E. coli NIHJ JC-2 by the plate diluted method; conditions: Escherichia coli, NIHJJC2
Experimental: as §1, §2

[4] = test system: A. calcoaceticus Ac-54; test: MIC against A. calcoaceticus Ac-54 by the plate diluted method; conditions: Acinetobacter calcoaceticus, AC54
Experimental: as §1, §2

[5] = test system: S. aureaus FDA-209P; test: MIC against S. aureaus FDA-209P by the plate diluted method; conditions: Staphylococcus aureus, FDA209P
Experimental: as §1, §2

[6] = test system: M. moganii IIDkono; test: MIC against M. moganii IIDkono by the plate diluted method
Experimental: as §1, §2

[7] = test system: P. aeruginosa ATCC-10145; test: MIC against P. aeruginosa ATCC-10145 by the plate diluted method; conditions: Pseudomonas aeruginosa, ATCC10145
Experimental: as §1, §2

[8] = test system: P. aeruginosa E-2; test: MIC against P. aeruginosa E-2 by the plate diluted method; conditions: Pseudomonas aeruginosa, E2
Experimental: as §1, §2

[9] = test system: E. coli No. 29; test: MIC against E. coli No. 29 by the plate diluted method; conditions: Escherichia coli, 1×10^6 cells/ml
Experimental: as §1, §2

[10] = K. pneumoniae NCTC-9632, 1×10^6 cells/ml, read-out: MIC
[11] = S. marcescens IFO 12648, 1×10^6 cells/ml, read-out: MIC
[12] = A. calcoaceticus Ac-54, 1×10^6 cells/ml, read-out: MIC
[13] = M. moganii IIDkono, 1×10^6 cells/ml, read-out: MIC
[14] = P. aeruginosa ATCC-10145, 1×10^6 cells/ml, read-out: MIC
[15] = P. aeruginosa E-2, 1×10^6 cells/ml, read-out: MIC
[16] = S. aureaus FDA-209P, 1×10^6 cells/ml, read-out: MIC
[17] = E. coli NIHJ JC-2, 1×10^6 cells/ml, read-out: MIC

MIC [6, 13] | MIC [5, 16] | Structure (SMILES) | MIC [1] | MIC [2] | MIC [3] | MIC [4] | MIC [5] | MIC [6] | MIC [7] | MIC [8] | MIC [1, 10] | MIC [2, 11] | MIC [4, 12] | MIC [9] | MIC [7, 14] | MIC [8, 15] | MIC [3, 17]
 |  | CC(C)(O/N=C(\C(=O)N[C@@H]1C(=O)N2C(C(=O)[O-])=C(C[n+]3ccccc3)CS[C@H]12)c1csc(N)n1)C(=O)O [CAZ, Ceftazizime, reference compound] | 0.05 µg/mL (≈ 0.0915 µM) | 0.024 µg/mL (≈ 0.0439 µM) | 0.2 µg/mL (≈ 0.366 µM) | 1.56 µg/mL (≈ 2.85 µM) | 3.13 µg/mL (≈ 5.73 µM) | 0.05 µg/mL (≈ 0.0915 µM) | 0.78 µg/mL (≈ 1.43 µM) | 1.56 µg/mL (≈ 2.85 µM) |  |  |  |  |  |  | 
0.1 µg/mL (≈ 0.152 µM) | 0.39 µg/mL (≈ 0.594 µM) | CO/N=C(\C(=O)N[C@@H]1C(=O)N2C(C(=O)[O-])=C(CSc3cc[n+](CC(=O)c4ccc(O)c(O)c4)cc3)CS[C@H]12)c1csc(N)n1 [No. 17, (6R,7R)-[(Z)-2-(2-aminothiazol-4-yl)-2-methoxyiminoacetamide]-3-[[1-[2-(3,4-dihydroxyphenyl)-2-oxo]ethyl]-4-pyridinio]thiomethyl-3-cephem-4-carboxylat] |  |  |  |  |  |  |  |  | 0.012 µg/mL (≈ 0.0183 µM) | 0.05 µg/mL (≈ 0.0761 µM) | 0.1 µg/mL (≈ 0.152 µM) | 0.012 µg/mL (≈ 0.0183 µM) | 0.2 µg/mL (≈ 0.305 µM) | 0.39 µg/mL (≈ 0.594 µM) | 
0.024 µg/mL (≈ 0.0352 µM) | 100 µg/mL (≈ 147 µM) | Nc1nc(/C(=N/OCc2cc(=O)c(O)cn2O)C(=O)N[C@@H]2C(=O)N3C(C(=O)O)=C(CSc4nnnn4CC(=O)O)SC[C@H]23)ns1 [No. 20, (6S,7S)-7-[(Z)-2-(5-amino-1,2,4-thiadiazol-3-yl)-2-(1,5-dihydroxy-4-pyridone-2-ylmethoxyimino)acetamide]-3-(1-carboxymethyl-1H-tetrazol-5-ylthiomethyl)-isocephem-4-carboxylic acid] |  |  |  |  |  |  |  |  | 0.012 µg/mL (≈ 0.0176 µM) | 0.012 µg/mL (≈ 0.0176 µM) | 0.05 µg/mL (≈ 0.0734 µM) |  | 0.05 µg/mL (≈ 0.0734 µM) | 0.05 µg/mL (≈ 0.0734 µM) | 0.05 µg/mL (≈ 0.0734 µM)
0.024 µg/mL (≈ 0.0352 µM) | 100 µg/mL (≈ 147 µM) | Nc1nc(/C(=N/OCc2cc(=O)c(O)cn2O)C(=O)N[C@@H]2C(=O)N3C(C(=O)O)=C(CSc4nnnn4CC(=O)O)CS[C@H]23)ns1 [No. 21, (6R,7R)-7-[(Z)-2-(5-amino-1,2,4-thiadiazol-3-yl)-2-(1,5-dihydroxy-4-pyridone-2-ylmethoxyimino)acetamide]-3-(1-carboxymethyl-1H-tetrazole-5-ylthiomethyl)-3-cephem-4-carboxylic acid] |  |  |  |  |  |  |  |  | 0.012 µg/mL (≈ 0.0176 µM) | 0.012 µg/mL (≈ 0.0176 µM) | 0.05 µg/mL (≈ 0.0734 µM) |  | 0.1 µg/mL (≈ 0.147 µM) | 0.1 µg/mL (≈ 0.147 µM) | 0.1 µg/mL (≈ 0.147 µM)

Structure (SMILES) | MIC [6, 13] | MIC [5, 16] | MIC [1] | MIC [2] | MIC [3] | MIC [4] | MIC [5] | MIC [6] | MIC [7] | MIC [8] | MIC [1, 10] | MIC [2, 11] | MIC [4, 12] | MIC [9] | MIC [7, 14] | MIC [8, 15] | MIC [3, 17]
CC(C)(O/N=C(\C(=O)N[C@@H]1C(=O)N2C(C(=O)[O-])=C(CSc3cc[n+](CC(=O)c4ccc(O)c(O)c4)cc3)CS[C@H]12)c1csc(N)n1)C(=O)O [No. 16, (6R,7R)-7-[(Z)-2-(2-aminothiazol-4-yl)-2-(1-carboxy-1-methylethoxy)iminoacetamide]-3-[[1-[2-(3,4-dihydroxyphenyl)-2-oxo]ethyl]-4-pyridinio]thiomethyl-3-cephem-4-carboxylate] | 0.05 µg/mL (≈ 0.0686 µM) |  |  |  |  |  | 1.56 µg/mL (≈ 2.14 µM) |  |  |  | 0.012 µg/mL (≈ 0.0165 µM) | 0.024 µg/mL (≈ 0.0329 µM) | 0.05 µg/mL (≈ 0.0686 µM) | 0.012 µg/mL (≈ 0.0165 µM) | 0.1 µg/mL (≈ 0.137 µM) | 0.1 µg/mL (≈ 0.137 µM) | 
Cc1nc(SCC2=C(C(=O)O)N3C(=O)[C@@H](NC(=O)/C(=N\OCc4cc(=O)c(O)cn4O)c4nsc(N)n4)[C@H]3CS2)sc1CC(=O)O [No. 18, (6S,7S)-7-[(Z)-2-(5-amino-1,2,4-thiadiazol-3-yl)-2-(1,5-dihydroxy-4-pyridone-2-ylmethoxyimino)acetamide]-3-(5-carboxymethyl-4-methylthiazol-2-ylthiomethyl)isocephem-4-carboxylic acid] |  | 100 µg/mL (≈ 141 µM) |  |  |  |  |  | 0.05 µg/mL (≈ 0.0703 µM) |  |  | 0.024 µg/mL (≈ 0.0338 µM) | 0.024 µg/mL (≈ 0.0338 µM) | 0.1 µg/mL (≈ 0.141 µM) |  | 0.1 µg/mL (≈ 0.141 µM) | 0.1 µg/mL (≈ 0.141 µM) | 0.1 µg/mL (≈ 0.141 µM)
Cc1nc(SCC2=C(C(=O)O)N3C(=O)[C@@H](NC(=O)/C(=N\OCc4cc(=O)c(O)cn4O)c4nsc(N)n4)[C@H]3SC2)sc1CC(=O)O [No. 19, (6R,7R)-7-[(Z)-2-(5-amino-1,2,4-thiadiazol-3-yl)-2-(1,5-dihydroxy-4-pyridone-2-ylmethoxyimino)acetamide]-3-(5-carboxymethyl-4-methylthiazol-2-ylthiomethyl)-3-cephem-4-carboxylic acid] |  | 100 µg/mL (≈ 141 µM) |  |  |  |  |  | 0.05 µg/mL (≈ 0.0703 µM) |  |  | 0.024 µg/mL (≈ 0.0338 µM) | 0.024 µg/mL (≈ 0.0338 µM) | 0.05 µg/mL (≈ 0.0703 µM) |  | 0.05 µg/mL (≈ 0.0703 µM) | 0.1 µg/mL (≈ 0.141 µM) | 0.1 µg/mL (≈ 0.141 µM)
